Assay results from US5236926A, “9-substituted-8-halo or -8-hydroxy-9-deazaguanines as inhibitors or PNP for pharmaceutical compositions” (Warner-Lambert Company, priority 1992, dated 1993).

Assays:
skin graft in dogs = conditions: cited from earlier work
[1] = molecular target: T1, purine nucleoside phosphorylase (PNP-4) (Homo sapiens, UniProt P00491); test: PNP-4 enzyme assay (radiochemical, [14C]-hypoxanthine formation from [14C]inosine); type: biochemical; conditions: human erythrocyte as enzyme source; activity table
T1 construct: using human erythrocyte as the enzyme source; from tissue; host or cells: human erythrocyte
T1 sequence (P00491 1-289): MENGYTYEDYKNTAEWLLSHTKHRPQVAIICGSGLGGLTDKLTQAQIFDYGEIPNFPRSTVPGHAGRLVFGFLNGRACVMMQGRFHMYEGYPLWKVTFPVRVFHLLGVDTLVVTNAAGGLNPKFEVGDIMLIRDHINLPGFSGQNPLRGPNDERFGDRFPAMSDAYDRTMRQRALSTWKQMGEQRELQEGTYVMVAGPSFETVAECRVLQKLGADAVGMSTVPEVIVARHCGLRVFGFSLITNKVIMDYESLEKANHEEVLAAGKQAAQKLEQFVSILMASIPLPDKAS
Procedure: In the purine nucleoside phosphorylase (PNP-4) enzyme assay, an IC50 is achieved at a dose of about from 0.9 to 3.18 micromoles on selected compounds of the present invention. PNP-4 activity for the compounds of Formula I is measured radiochemically by measuring the formation of [^14 -C]-hypoxanthine from [^14 -C]inosine [Biomedicine 33:39 (1980)]using human erythrocyte as the enzyme source. An in vivo inhibition of purine nucleoside phosphorylase (HPLC-1) enzyme assay is used essentially as disclosed in the Annals of New York Academy of Sciences 451:313 (1985) to further show the activity of the compounds of Formula I of the present invention. […] Since removal of T-cells or modulation of T-cells are beneficial in the treatment of autoimmune diseases, these compounds being selectively cytotoxic to T-cells will, therefore, be useful in their treatment. […] Clinically it has been shown that modulation and/or removal of T-cells by thoracic duct drainage, lymphapheresis, or total lymphoid irradiation gave partial to complete relief from rheumatoid arthritis in patients who were totally refractory to other forms of therapy [A. Tanay, et al, Arthritis and Rheumatism 30(1):1 (1987); S. Strober, et al, Annual of Internal Medicine V-102(4):441-449 (1985); H. G. Nusslein, et al, Arthritis and Rheumatism V-28(11):1205-1210 (1985); E. Brahn, et al, ibid V-27(5):481-487 (1984); and J. Karsh, et al, ibid V 24(7):867-873. (1981)]. […] N. Ellis, et al, JAMA V-256( 22):3110-3116 (Dec. 12, 1986).

SMILES | IC50 [1] [nM] | inhibition of rejection of skin graft (skin graft in dogs)
Nc1nc2c(nc(N)n2[C@@H]2O[C@H](CO)[C@@H](O)[C@H]2O)c(=O)[nH]1 [8-Aminoguanosine] | – | efficacious for inhibiting rejection of skin graft in dogs
Nc1nc2c(Cc3ccsc3)c(Br)[nH]c2c(=O)[nH]1 [Example 3, 2-Amino-6-bromo-3,5-dihydro-7-(3-thienylmethyl)-4H-pyrrolo[3,2-d]pyrimidin-4-one] | 6900 | –

Continued, in another order:

IC50 [1] [nM] | SMILES | inhibition of rejection of skin graft (skin graft in dogs)
2770 | Nc1nc2c(Cc3ccsc3)c(Cl)[nH]c2c(=O)[nH]1 [Example 6, 2-Amino-6-chloro-3,5-dihydro-7-(3-thienylmethyl)-4H-pyrrolo[3,2-d]pyrimidin-4-one] | –
150 | Nc1nc2c(Cc3ccsc3)c(F)[nH]c2c(=O)[nH]1 [Example 8, 2-Amino-6-fluoro-3,5-dihydro-7-(3-thienylmethyl) 4H-pyrrolo[3,2-d]pyrimidin-4 one] | –
> 30000 | Nc1nc2c(Cc3ccsc3)c(I)[nH]c2c(=O)[nH]1 [Example 5] | –
